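The compound was tested at five concentrations on cells cultured in 96-well plates, with a 48-hour exposure period. GI50 is the concentration that inhibits growth by half.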 The source made the active and inactive calls. Cut-off read from the data, not from the text of the source: active = GI50 up to about 1.1 µM and inactive = higher.
What was measured:
Experiment in all cases: NCI anticancer screen, dose series, 48 h
T47D = system: T47D
SK-MEL-5 = system: SK-MEL-5
SK-MEL-2 = system: SK-MEL-2
SNB-75 = system: SNB-75
SF-268 = system: SF-268
UACC-62 = system: UACC-62
UACC-257 = system: UACC-257
SN12C = system: SN12C
HL-60 = system: HL-60
786-0 = system: 786-0
OVCAR-8 = system: OVCAR-8
OVCAR-4 = system: OVCAR-4
SF-539 = system: SF-539
MDA-N = system: MDA-N
K562 = system: K562
EKVX = system: EKVX
LOX IMVI = system: LOX IMVI
PC-3 = system: PC-3
A498 = system: A498
HT-29 = system: HT-29
OVCAR-3 = system: OVCAR-3
SR = system: SR
CCRF-CEM = system: CCRF-CEM
HCT-15 = system: HCT-15
HOP-92 = system: HOP-92
SF-295 = system: SF-295
M14 = system: M14
MDA-MB-435 = system: MDA-MB-435
DU-145 = system: DU-145
CAKI-1 = system: CAKI-1
UO-31 = system: UO-31
KM12 = system: KM12
ACHN = system: ACHN
HOP-62 = system: HOP-62
NCI-H460 = system: NCI-H460
RXF 393 = system: RXF 393
Malme-3M = system: Malme-3M
OVCAR-5 = system: OVCAR-5
TK-10 = system: TK-10
NCI-H522 = system: NCI-H522
U-251 = system: U-251
SK-MEL-28 = system: SK-MEL-28
MOLT-4 = system: MOLT-4
COLO 205 = system: COLO 205
IGROV-1 = system: IGROV-1
MDA-MB-231 = system: MDA-MB-231
SNB-19 = system: SNB-19
Hs-578T = system: Hs-578T
SW-620 = system: SW-620
A549 = system: A549
MCF7 = system: MCF7
NCI-H226 = system: NCI-H226
NCI/ADR-RES = system: NCI/ADR-RES
HCT-116 = system: HCT-116
NCI-H23 = system: NCI-H23
RPMI-8226 = system: RPMI-8226
BT-549 = system: BT-549
HCC 2998 = system: HCC 2998
SK-OV-3 = system: SK-OV-3

What does the source list for `CCOC(=O)NC(NC(C)CC)(C(F)(F)F)C(F)(F)F` (stereo unspecified)?
GI50 (T47D): > 100 µM (inactive); GI50 (SK-MEL-5): > 100 µM (inactive); GI50 (SK-MEL-2): > 100 µM (inactive); GI50 (SNB-75): > 100 µM (inactive); GI50 (SF-268): > 100 µM (inactive); GI50 (UACC-62): > 100 µM (inactive); GI50 (UACC-257): > 100 µM (inactive); GI50 (SN12C): > 100 µM (inactive); GI50 (HL-60): > 100 µM (inactive); GI50 (786-0): > 100 µM (inactive); GI50 (OVCAR-8): > 100 µM (inactive); GI50 (OVCAR-4): > 100 µM (inactive); GI50 (SF-539): > 100 µM (inactive); GI50 (MDA-N): > 100 µM (inactive); GI50 (K562): > 100 µM (inactive); GI50 (EKVX): > 100 µM (inactive); GI50 (LOX IMVI): > 100 µM (inactive); GI50 (PC-3): > 100 µM (inactive); GI50 (A498): > 100 µM (inactive); GI50 (HT-29): > 100 µM (inactive); GI50 (OVCAR-3): > 100 µM (inactive); GI50 (SR): > 100 µM (inactive); GI50 (CCRF-CEM): > 100 µM (inactive); GI50 (HCT-15): > 100 µM; GI50 (HOP-92): > 100 µM (inactive); GI50 (SF-295): > 100 µM (inactive); GI50 (M14): > 100 µM (inactive); GI50 (MDA-MB-435): > 100 µM (inactive); GI50 (DU-145): > 100 µM (inactive); GI50 (CAKI-1): > 100 µM (inactive); GI50 (UO-31): > 100 µM (inactive); GI50 (KM12): > 100 µM (inactive); GI50 (ACHN): > 100 µM (inactive); GI50 (HOP-62): > 100 µM (inactive); GI50 (NCI-H460): > 100 µM (inactive); GI50 (RXF 393): > 100 µM (inactive); GI50 (Malme-3M): > 100 µM (inactive); GI50 (OVCAR-5): > 100 µM (inactive); GI50 (TK-10): > 100 µM (inactive); GI50 (NCI-H522): > 100 µM (inactive); GI50 (U-251): 81.5 µM (inactive); GI50 (SK-MEL-28): > 100 µM (inactive); GI50 (MOLT-4): > 100 µM (inactive); GI50 (COLO 205): > 100 µM (inactive); GI50 (IGROV-1): > 100 µM (inactive); GI50 (MDA-MB-231): > 100 µM (inactive); GI50 (SNB-19): > 100 µM (inactive); GI50 (Hs-578T): > 100 µM (inactive); GI50 (SW-620): 42.3 µM (inactive); GI50 (A549): > 100 µM (inactive); GI50 (MCF7): > 100 µM (inactive); GI50 (NCI-H226): > 100 µM (inactive); GI50 (NCI/ADR-RES): > 100 µM (inactive); GI50 (HCT-116): > 100 µM (inactive); GI50 (NCI-H23): > 100 µM (inactive); GI50 (RPMI-8226): > 100 µM (inactive)

Which results are given for `COC(=O)/C=C/COCC1C2CCC(=O)C21` (stereo unspecified)?
GI50 (SK-MEL-5): > 100 µM (inactive); GI50 (SK-MEL-2): > 100 µM (inactive); GI50 (SNB-75): > 100 µM (inactive); GI50 (SF-268): > 100 µM (inactive); GI50 (UACC-62): > 100 µM (inactive); GI50 (UACC-257): > 100 µM (inactive); GI50 (SN12C): > 100 µM (inactive); GI50 (786-0): > 100 µM (inactive); GI50 (OVCAR-8): > 100 µM (inactive); GI50 (OVCAR-4): > 100 µM (inactive); GI50 (SF-539): > 100 µM (inactive); GI50 (MDA-N): > 100 µM (inactive); GI50 (K562): > 100 µM (inactive); GI50 (EKVX): > 100 µM (inactive); GI50 (LOX IMVI): > 100 µM (inactive); GI50 (PC-3): > 100 µM (inactive); GI50 (HT-29): > 100 µM (inactive); GI50 (OVCAR-3): > 100 µM (inactive); GI50 (SR): > 100 µM (inactive); GI50 (CCRF-CEM): > 100 µM (inactive); GI50 (HCT-15): > 100 µM; GI50 (HOP-92): > 100 µM (inactive); GI50 (BT-549): > 100 µM (inactive); GI50 (SF-295): > 100 µM (inactive); GI50 (M14): > 100 µM (inactive); GI50 (HCC 2998): > 100 µM (inactive); GI50 (MDA-MB-435): > 100 µM (inactive); GI50 (DU-145): > 100 µM (inactive); GI50 (CAKI-1): 27.4 µM (inactive); GI50 (UO-31): > 100 µM (inactive); GI50 (KM12): > 100 µM (inactive); GI50 (ACHN): > 100 µM (inactive); GI50 (HOP-62): > 100 µM (inactive); GI50 (NCI-H460): > 100 µM (inactive); GI50 (RXF 393): > 100 µM (inactive); GI50 (Malme-3M): > 100 µM (inactive); GI50 (OVCAR-5): > 100 µM (inactive); GI50 (TK-10): > 100 µM (inactive); GI50 (NCI-H522): > 100 µM (inactive); GI50 (U-251): > 100 µM (inactive); GI50 (SK-MEL-28): > 100 µM (inactive); GI50 (SK-OV-3): > 100 µM (inactive); GI50 (MOLT-4): > 100 µM (inactive); GI50 (COLO 205): > 100 µM (inactive); GI50 (IGROV-1): > 100 µM (inactive); GI50 (MDA-MB-231): > 100 µM (inactive); GI50 (SNB-19): > 100 µM (inactive); GI50 (SW-620): > 100 µM (inactive); GI50 (A549): > 100 µM (inactive); GI50 (MCF7): > 100 µM (inactive); GI50 (NCI-H226): > 100 µM (inactive); GI50 (NCI/ADR-RES): > 100 µM (inactive); GI50 (HCT-116): > 100 µM (inactive); GI50 (NCI-H23): > 100 µM (inactive); GI50 (RPMI-8226): > 100 µM (inactive)

From ChEMBL document CHEMBL1201862, “PubChem BioAssay data set” (2004)
